Data as given in ChEMBL document CHEMBL1201861, “Genomics of Drug Sensitity in Cancer screening data, Wellcome Trust Sanger Institute”.
Where “and” joins values, the source holds several entries; their conditions need not be identical. Equal entries are not always repeated. Where a SMILES comes first, the peptide text is derived from it. The star is where a group is joined. Cbz = O=C(OCc1ccccc1)*

Experiments:
COR-L279 = test: SANGER: Inhibition of human COR-L279 cell growth in a cell viability assay.; assay type: functional, cell-based
DMS-79 = test: cells; assay type: functional, cell-based, Homo sapiens
Description: SANGER: Inhibition of human DMS-79 cell growth in a cell viability assay.

GDM-1 = test: cells; assay type: functional, cell-based, Homo sapiens; conditions: read-out: IC50;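 further: cell viability readout used to measure growth inhibition of human GDM-1 cells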
Description: SANGER: Inhibition of human GDM-1 cell growth in a cell viability assay.

HCC 2998 = test: cells; assay type: functional, cell-based; conditions: Homo sapiens;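 further: growth inhibition of human HCC2998 cells, measured with a cell viability read-out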
Description: SANGER: Inhibition of human HCC2998 cell growth in a cell viability assay.

LC4-1 = test: cells; assay type: functional, cell-based, Homo sapiens;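 further: growth inhibition of LC4-1 cells, read out with a cell viability assay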
Description: SANGER: Inhibition of human LC4-1 cell growth in a cell viability assay.

NALM-6 = test: cells; assay type: functional, cell-based, Homo sapiens;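 further: growth inhibition of NALM-6 cells, read out with a cell viability assay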
Description: SANGER: Inhibition of human NALM-6 cell growth in a cell viability assay.

NCI-H1417 = test: cells; assay type: functional, cell-based, Homo sapiens;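 further: human NCI-H1417 cells, growth inhibition determined with a cell viability readout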
Description: SANGER: Inhibition of human NCI-H1417 cell growth in a cell viability assay.

NCI-H1694 = test: cells; assay type: functional, cell-based, Homo sapiens;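 further: cell viability assay measuring inhibition of growth in human NCI-H1694 cells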
Description: SANGER: Inhibition of human NCI-H1694 cell growth in a cell viability assay.

NCI-H187 = test: cells; assay type: functional, cell-based, Homo sapiens;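 further: growth inhibition of NCI-H187 cells, read out as cell viability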
Description: SANGER: Inhibition of human NCI-H187 cell growth in a cell viability assay.

NCI-H1882 = test: cells; assay type: functional, cell-based, Homo sapiens;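 further: growth inhibition of the cell line, determined with a viability assay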
Description: SANGER: Inhibition of human NCI-H1882 cell growth in a cell viability assay.

NCI-H2141 = test: cells; assay type: functional, cell-based, Homo sapiens;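 further: growth inhibition of human NCI-H2141 cells, read out with a cell viability assay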
Description: SANGER: Inhibition of human NCI-H2141 cell growth in a cell viability assay.

OPM-2 = test: cells; assay type: functional, cell-based, Homo sapiens;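 further: growth of OPM-2 cells measured with a viability assay, IC50 for suppression of proliferation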
Description: SANGER: Inhibition of human OPM-2 cell growth in a cell viability assay.

P31-FUJ = test: cells; assay type: functional, cell-based, Homo sapiens;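 further: growth inhibition of P31-FUJ cells, read out with a viability assay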
Description: SANGER: Inhibition of human P31-FUJ cell growth in a cell viability assay.

SK-MM-2 = test: cells; assay type: functional, cell-based, Homo sapiens;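 further: growth inhibition of human SK-MM-2 cells, read out with a cell viability assay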
Description: SANGER: Inhibition of human SK-MM-2 cell growth in a cell viability assay.

SNU-C1 = test: cells; assay type: functional, cell-based, Homo sapiens;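 further: growth inhibition of SNU-C1 human cells, read out by a cell viability assay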
Description: SANGER: Inhibition of human SNU-C1 cell growth in a cell viability assay.

ST486 = test: SANGER: Inhibition of human ST486 cell growth in a cell viability assay.; assay type: functional, cell-based
BC-3 = test: cells; assay type: functional, cell-based, Homo sapiens;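 further: cell viability assay measuring growth inhibition of human BC-3 cells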
Description: SANGER: Inhibition of human BC-3 cell growth in a cell viability assay.

TE-15 = test: cells; assay type: functional, cell-based, Homo sapiens;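 further: cell viability readout of growth inhibition in TE-15 cells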
Description: SANGER: Inhibition of human TE-15 cell growth in a cell viability assay.

UACC-812 = test: cells; assay type: functional, cell-based; conditions: Homo sapiens
Description: SANGER: Inhibition of human UACC-812 cell growth in a cell viability assay.

YT = test: cells; assay type: functional, cell-based, Homo sapiens
Description: SANGER: Inhibition of human YT cell growth in a cell viability assay.

K052 = test: cells; assay type: functional, cell-based, Homo sapiens;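 further: Read-out from a cell viability assay, IC50 reflecting suppression of K052 cell growth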
Description: SANGER: Inhibition of human K052 cell growth in a cell viability assay.

DBTRG-05MG = test: cells; assay type: functional, cell-based; conditions: Homo sapiens;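 further: cell viability assay measuring growth inhibition of human DBTRG-05MG cells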
Description: SANGER: Inhibition of human DBTRG-05MG cell growth in a cell viability assay.

HO-1-N-1 = test: cells; assay type: functional, cell-based; conditions: Homo sapiens;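 further: growth inhibition of human HO-1-N-1 cells, read out with a cell viability assay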
Description: SANGER: Inhibition of human HO-1-N-1 cell growth in a cell viability assay.

HSC-2 = test: cells; assay type: functional, cell-based; conditions: Homo sapiens;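 further: growth inhibition of human HSC-2 cells, read out by a cell viability assay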
Description: SANGER: Inhibition of human HSC-2 cell growth in a cell viability assay.

Huh-7 = test: cells; assay type: functional, cell-based; conditions: Homo sapiens;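 further: HuH-7 cell growth inhibition, read out with a cell viability assay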
Description: SANGER: Inhibition of human HuH-7 cell growth in a cell viability assay.

HuP-T4 = test: cells; assay type: functional, cell-based; conditions: Homo sapiens;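 further: cell viability assay measuring how much HuP-T4 cell growth is inhibited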
Description: SANGER: Inhibition of human HuP-T4 cell growth in a cell viability assay.

KU-19-19 = test: cells; assay type: functional, cell-based; conditions: Homo sapiens
Description: SANGER: Inhibition of human KU-19-19 cell growth in a cell viability assay.

KYSE-410 = test: cells; assay type: functional, cell-based; conditions: Homo sapiens;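 further: growth inhibition of KYSE-410 cells, measured through a cell viability readout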
Description: SANGER: Inhibition of human KYSE-410 cell growth in a cell viability assay.

MDA-MB-231 = test: cells; assay type: functional, cell-based; conditions: Homo sapiens
Description: SANGER: Inhibition of human MDA-MB-231 cell growth in a cell viability assay.

MKN-7 = test: cells; assay type: functional, cell-based; conditions: Homo sapiens;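 further: growth inhibition of MKN-7 cells, read out with a cell viability assay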
Description: SANGER: Inhibition of human MKN7 cell growth in a cell viability assay.

MeWo = test: cells; assay type: functional, cell-based; conditions: Homo sapiens;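 further: growth inhibition of MeWo cells, determined by a cell viability readout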
Description: SANGER: Inhibition of human Mewo cell growth in a cell viability assay.

NCI-H1437 = test: cells; assay type: functional, cell-based; conditions: Homo sapiens;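 further: growth inhibition of human NCI-H1437 cells, read out by a cell viability assay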
Description: SANGER: Inhibition of human NCI-H1437 cell growth in a cell viability assay.

NCI-H1755 = test: cells; assay type: functional, cell-based; conditions: Homo sapiens;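 further: cell viability readout used to measure growth inhibition of NCI-H1755 cells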
Description: SANGER: Inhibition of human NCI-H1755 cell growth in a cell viability assay.

NCI-H522 = test: cells; assay type: functional, cell-based; conditions: Homo sapiens;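 further: cell viability assay measuring growth inhibition of human NCI-H522 cells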
Description: SANGER: Inhibition of human NCI-H522 cell growth in a cell viability assay.

NUGC-3 = test: cells; assay type: functional, cell-based; conditions: Homo sapiens;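 further: growth inhibition of human NUGC-3 cells, read out with a cell viability assay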
Description: SANGER: Inhibition of human NUGC-3 cell growth in a cell viability assay.

OAW-28 = test: cells; assay type: functional, cell-based; conditions: Homo sapiens;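 further: growth inhibition of OAW-28 cells, read out with a cell viability assay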
Description: SANGER: Inhibition of human OAW-28 cell growth in a cell viability assay.

OE19 = test: cells; assay type: functional, cell-based; conditions: Homo sapiens;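 further: growth inhibition of OE19 cells, measured through a cell viability read-out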
Description: SANGER: Inhibition of human OE19 cell growth in a cell viability assay.

PC-3 = test: cells; assay type: functional, cell-based; conditions: Homo sapiens;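 further: cell viability assay measuring growth inhibition of PC-3 cells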
Description: SANGER: Inhibition of human PC-3 cell growth in a cell viability assay.

RD = test: cells; assay type: functional, cell-based; conditions: Homo sapiens
Description: SANGER: Inhibition of human RD cell growth in a cell viability assay.

RMG-I = test: cells; assay type: functional, cell-based; conditions: Homo sapiens;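 further: growth inhibition of human RMG-I cells, read out with a cell viability assay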
Description: SANGER: Inhibition of human RMG-I cell growth in a cell viability assay.

RPMI-2650 = test: cells; assay type: functional, cell-based; conditions: Homo sapiens
Description: SANGER: Inhibition of human RPMI-2650 cell growth in a cell viability assay.

SK-N-AS = test: cells; assay type: functional, cell-based; conditions: Homo sapiens;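 further: growth inhibition of human SK-N-AS cells, measured with a cell viability assay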
Description: SANGER: Inhibition of human SK-N-AS cell growth in a cell viability assay.

SW1417 = test: cells; assay type: functional, cell-based; conditions: Homo sapiens;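 further: growth inhibition of human SW1417 cells, read out with a cell viability assay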
Description: SANGER: Inhibition of human SW1417 cell growth in a cell viability assay.

SW1990 = test: cells; assay type: functional, cell-based; conditions: Homo sapiens
Description: SANGER: Inhibition of human SW1990 cell growth in a cell viability assay.

SW626 = test: cells; assay type: functional, cell-based; conditions: Homo sapiens;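 further: growth inhibition of SW626 cells, measured with a cell viability assay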
Description: SANGER: Inhibition of human SW626 cell growth in a cell viability assay.

SW780 = test: cells; assay type: functional, cell-based; conditions: Homo sapiens;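 further: growth inhibition of the cells, read out with a cell viability assay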
Description: SANGER: Inhibition of human SW780 cell growth in a cell viability assay.

SW837 = test: cells; assay type: functional, cell-based; conditions: Homo sapiens;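 further: growth inhibition of SW837 cells, determined with a cell viability assay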
Description: SANGER: Inhibition of human SW837 cell growth in a cell viability assay.

T84 = test: cells; assay type: functional, cell-based; conditions: Homo sapiens;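 further: growth inhibition measured with a cell viability readout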
Description: SANGER: Inhibition of human T84 cell growth in a cell viability assay.

769-P = test: cells; assay type: functional, cell-based; conditions: Homo sapiens
Description: SANGER: Inhibition of human 769-P cell growth in a cell viability assay.

A2780 = test: cells; assay type: functional, cell-based; conditions: Homo sapiens;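 further: growth inhibition of A2780 cells, read out with a cell viability assay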
Description: SANGER: Inhibition of human A2780 cell growth in a cell viability assay.

BEN = test: cells; assay type: functional, cell-based; conditions: Homo sapiens;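 further: growth inhibition of the BEN cell line, read out with a cell viability assay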
Description: SANGER: Inhibition of human BEN cell growth in a cell viability assay.

BHT-101 = test: cells; assay type: functional, cell-based; conditions: Homo sapiens
Description: SANGER: Inhibition of human BHT-101 cell growth in a cell viability assay.

BPH-1 = test: cells; assay type: functional, cell-based; conditions: Homo sapiens;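 further: cell viability assay measuring growth inhibition of human BPH-1 cells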
Description: SANGER: Inhibition of human BPH-1 cell growth in a cell viability assay.

CAL-72 = test: cells; assay type: functional, cell-based; conditions: Homo sapiens;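 further: cell viability assay measuring inhibition of proliferation in the CAL-72 cell line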
Description: SANGER: Inhibition of human CAL-72 cell growth in a cell viability assay.

TYK-nu = test: cells; assay type: functional, cell-based; conditions: Homo sapiens;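 further: growth inhibition of human TYK-nu cells, read out by a cell viability assay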
Description: SANGER: Inhibition of human TYK-nu cell growth in a cell viability assay.

UMC-11 = test: cells; assay type: functional, cell-based; conditions: Homo sapiens;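 further: growth inhibition of UMC-11 cells, read out with a cell viability assay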
Description: SANGER: Inhibition of human UMC-11 cell growth in a cell viability assay.

WM-115 = test: cells; assay type: functional, cell-based; conditions: Homo sapiens
Description: SANGER: Inhibition of human WM-115 cell growth in a cell viability assay.

YKG-1 = test: cells; assay type: functional, cell-based; conditions: Homo sapiens;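 further: cell growth inhibition, read out with a viability assay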
Description: SANGER: Inhibition of human YKG-1 cell growth in a cell viability assay.

`Nc1ccccc1NC(=O)c1ccc(CNC(=O)OCc2cccnc2)cc1` [ENTINOSTAT] was tested. Which IC50 (COR-L279; Homo sapiens, COR-L279) did it give?
The IC50 was 0.71 µM.

And the IC50 (DMS-79; Homo sapiens, DMS-79)?
The IC50 was 2.54 µM.

And the IC50 (GDM-1; Homo sapiens, GDM-1)?
The IC50 was 0.887 µM.

And the IC50 (HCC 2998)?
The IC50 was 0.784 µM.

What about the IC50 (LC4-1; Homo sapiens, LC4-1) of the same compound?
Its IC50 is 0.84 µM.

And the IC50 (NALM-6; Homo sapiens, NALM-6)?
The IC50 was 0.649 µM.

What about the IC50 (NCI-H1417; Homo sapiens, NCI-H1417) of the same compound?
Its IC50 is 0.13 µM.

And the IC50 (NCI-H1694; Homo sapiens, NCI-H1694)?
Its IC50 is 4.13 µM.

What about the IC50 (NCI-H187; Homo sapiens, NCI-H187) of the same compound?
Its IC50 is 0.492 µM.

And the IC50 (NCI-H1882; Homo sapiens, NCI-H1882)?
Its IC50 is 2.68 µM.

What about the IC50 (NCI-H2141; Homo sapiens, NCI-H2141) of the same compound?
Its IC50 is 3.17 µM.

What about the IC50 (OPM-2; Homo sapiens, OPM-2) of the same compound?
Its IC50 is 0.415 µM.

And the IC50 (P31-FUJ; Homo sapiens, P31-FUJ)?
Its IC50 is > 5 µM.

What about the IC50 (SK-MM-2; Homo sapiens, SK-MM-2) of the same compound?
Its IC50 is 0.399 µM.

What about the IC50 (SNU-C1; Homo sapiens, SNU-C1) of the same compound?
The IC50 was > 5 µM.

What about the IC50 (ST486; Homo sapiens, ST486) of the same compound?
The IC50 was 0.879 µM.

What about the IC50 (BC-3; Homo sapiens, BC-3) of the same compound?
Its IC50 is 0.783 µM.

And the IC50 (TE-15; Homo sapiens, TE-15)?
Its IC50 is > 5 µM.

What about the IC50 (UACC-812) of the same compound?
Its IC50 is > 5 µM.

And the IC50 (YT; Homo sapiens, YT)?
Its IC50 is > 5 µM.

Which results are given for `COc1cc(N2CCC(N3CCN(C)CC3)CC2)ccc1Nc1ncc(Cl)c(Nc2ccccc2S(=O)(=O)C(C)C)n1` [TAE-684]?
IC50 (COR-L279; Homo sapiens, COR-L279): > 2 µM; IC50 (DMS-79; Homo sapiens, DMS-79): > 2 µM; IC50 (GDM-1; Homo sapiens, GDM-1): 0.471 µM; IC50 (K052; Homo sapiens, K052): > 2 µM; IC50 (LC4-1; Homo sapiens, LC4-1): > 2 µM; IC50 (NALM-6; Homo sapiens, NALM-6): 0.907 µM; IC50 (NCI-H1417; Homo sapiens, NCI-H1417): > 2 µM; IC50 (NCI-H1694; Homo sapiens, NCI-H1694): > 2 µM; IC50 (NCI-H187; Homo sapiens, NCI-H187): 1.7 µM; IC50 (NCI-H1882; Homo sapiens, NCI-H1882): 1.24 µM; IC50 (NCI-H2141; Homo sapiens, NCI-H2141): > 2 µM; IC50 (OPM-2; Homo sapiens, OPM-2): 0.227 µM; IC50 (P31-FUJ; Homo sapiens, P31-FUJ): > 2 µM; IC50 (SK-MM-2; Homo sapiens, SK-MM-2): 0.416 µM; IC50 (SNU-C1; Homo sapiens, SNU-C1): > 2 µM; IC50 (ST486; Homo sapiens, ST486): > 2 µM; IC50 (BC-3; Homo sapiens, BC-3): > 2 µM; IC50 (TE-15; Homo sapiens, TE-15): 0.511 µM; IC50 (UACC-812): > 2 µM; IC50 (YT; Homo sapiens, YT): > 2 µM

For `CS(=O)(=O)N1CCN(Cc2cc3nc(-c4cccc5[nH]ncc45)nc(N4CCOCC4)c3s2)CC1` [PICTILISIB], which IC50 (DBTRG-05MG) is on record?
The IC50 was > 4 µM.

And the IC50 (HCC 2998)?
The IC50 was > 4 µM.

And the IC50 (HO-1-N-1)?
Its IC50 is 0.659 µM.

What about the IC50 (HSC-2) of the same compound?
The IC50 was > 4 µM.

What about the IC50 (Huh-7) of the same compound?
Its IC50 is 1.21 µM.

What about the IC50 (HuP-T4) of the same compound?
The IC50 was 1.61 µM.

And the IC50 (KU-19-19)?
Its IC50 is 0.516 µM.

What about the IC50 (KYSE-410) of the same compound?
Its IC50 is > 4 µM.

What about the IC50 (MDA-MB-231) of the same compound?
Its IC50 is > 4 µM.

And the IC50 (MKN-7)?
The IC50 was 2.71 µM.

What about the IC50 (MeWo) of the same compound?
Its IC50 is 3.42 µM.

What about the IC50 (NCI-H1437) of the same compound?
Its IC50 is > 4 µM.

What about the IC50 (NCI-H1755) of the same compound?
Its IC50 is > 4 µM.

And the IC50 (NCI-H522)?
Its IC50 is > 4 µM.

What about the IC50 (NUGC-3) of the same compound?
The IC50 was > 4 µM.

And the IC50 (OAW-28)?
Its IC50 is > 4 µM.

And the IC50 (OE19)?
Its IC50 is > 4 µM.

And the IC50 (PC-3)?
The IC50 was > 4 µM.

And the IC50 (RD)?
Its IC50 is > 4 µM.

What about the IC50 (RMG-I) of the same compound?
Its IC50 is > 4 µM.

And the IC50 (RPMI-2650)?
The IC50 was 3.61 µM.

And the IC50 (SK-N-AS)?
Its IC50 is > 4 µM.

And the IC50 (SW1417)?
The IC50 was > 4 µM.

And the IC50 (SW1990)?
The IC50 was > 4 µM.

What about the IC50 (SW626) of the same compound?
The IC50 was > 4 µM.

And the IC50 (SW780)?
Its IC50 is > 4 µM.

What about the IC50 (SW837) of the same compound?
Its IC50 is > 4 µM.

What about the IC50 (T84) of the same compound?
Its IC50 is > 4 µM.

What about the IC50 (769-P) of the same compound?
Its IC50 is 3.83 µM.

And the IC50 (A2780)?
Its IC50 is > 4 µM.

And the IC50 (BEN)?
The IC50 was > 4 µM.

What about the IC50 (BHT-101) of the same compound?
The IC50 was 0.545 µM.

And the IC50 (BPH-1)?
The IC50 was 0.314 µM.

What about the IC50 (CAL-72) of the same compound?
The IC50 was > 4 µM.

What about the IC50 (TYK-nu) of the same compound?
Its IC50 is 1.96 µM.

What about the IC50 (UMC-11) of the same compound?
The IC50 was > 4 µM.

What about the IC50 (WM-115) of the same compound?
The IC50 was 1.07 µM.

And the IC50 (YKG-1)?
The IC50 was 3.04 µM.

What does the source list for `CC(C)C[C@@H](C=O)NC(=O)[C@H](CC(C)C)NC(=O)[C@H](CC(C)C)NC(=O)OCc1ccccc1` [MG-132] (Cbz-Leu-Leu-Leu-aldehyde)?
IC50 (COR-L279; cor-l279): > 1 µM; IC50 (DMS-79; dms-79): > 1 µM; IC50 (GDM-1; gdm-1): 0.351 µM and > 1 µM; IC50 (HCC 2998): 0.939 µM; IC50 (K052; k052): 0.29 µM and > 1 µM; IC50 (LC4-1; Homo sapiens, LC4-1): 0.436 µM; IC50 (LC4-1; lc4-1): 0.747 µM; IC50 (NALM-6; Homo sapiens, NALM-6): > 1 µM; IC50 (NALM-6; nalm-6): > 1 µM; IC50 (NCI-H1417; nci-h1417): > 1 µM; IC50 (NCI-H1694; Homo sapiens, NCI-H1694): > 1 µM; IC50 (NCI-H1694; nci-h1694): > 1 µM; IC50 (NCI-H187; nci-h187): > 1 µM; IC50 (NCI-H1882; nci-h1882): 0.59 µM and > 1 µM; IC50 (NCI-H2141; nci-h2141): > 1 µM; IC50 (OPM-2; opm-2): 0.105 µM and 0.758 µM; IC50 (P31-FUJ; p31-fuj): > 1 µM; IC50 (SK-MM-2; sk-mm-2): > 1 µM; IC50 (SNU-C1; snu-c1): > 1 µM; IC50 (ST486; Homo sapiens, ST486): > 1 µM; IC50 (ST486; st486): > 1 µM; IC50 (BC-3; Homo sapiens, BC-3): > 1 µM; IC50 (BC-3; bc-3): > 1 µM; IC50 (TE-15; te-15): > 1 µM; IC50 (UACC-812): > 1 µM; IC50 (YT; yt): > 1 µM
